Measurements: patent US20260297081A1, “COMPOUNDS AND METHODS OF TREATING CANCERS” (Cullgen Inc., priority 2023, published 2026)

system: MCF7 cells; assay: Anti-proliferation (viability) of MCF7 cells (Table 7, FIG. 2B); assay type: cell-based; conditions: Homo sapiens, MCF7, MCF7 cells, 3-6 days, 10-point serial dilution; read-out: GI IC50 in MCF-7

Row | Structure (SMILES) | IC50
1 | CC(=O)c1c(C)c2cnc(Nc3ccc(N4CCC(N5CC(C(=O)NC6CC7(C6)CC(Nc6nc(NC(C)C)ccc6C(=O)Nc6ccc(N(C)C)nn6)C7)C5)CC4)cn3)nc2n(C2CCCC2)c1=O (centres unmarked) [CPD-393, 2-((6-(1-(1-(6-((6-acetyl-8-cyclopentyl-5-methyl-7-oxo-7,8-dihydropyrido[2,3-d]pyrimidin-2-yl)amino)pyridin-3-yl)piperidin-4-yl)azetidine-3-carboxamido)spiro[3.3]heptan-2-yl)amino)-N-(6-(dimethylamino)pyridazin-3-yl)-6-(isopropylamino)nicotinamide] | 50 to 100 nM
2 | CC(=O)c1c(C)c2cnc(Nc3ccc(N4CCC(N5CCC(C(=O)N6CC(Nc7nc(NC(C)C)ccc7C(=O)Nc7ccc(N(C)C)nn7)C6)C5)CC4)cn3)nc2n(C2CCCC2)c1=O (centres unmarked) [CPD-394, 2-((1-(1-(1-(6-((6-acetyl-8-cyclopentyl-5-methyl-7-oxo-7,8-dihydropyrido[2,3-d]pyrimidin-2-yl)amino)pyridin-3-yl)piperidin-4-yl)pyrrolidine-3-carbonyl)azetidin-3-yl)amino)-N-(6-(dimethylamino)pyridazin-3-yl)-6-(isopropylamino)nicotinamide] | > 100 nM
3 | CC(=O)c1c(C)c2cnc(Nc3ccc(N4CCC(N5CCC(C(=O)N6CCC(Nc7nc(NC(C)C)ccc7C(=O)Nc7ccc(N(C)C)nn7)C6)C5)CC4)cn3)nc2n(C2CCCC2)c1=O (centres unmarked) [CPD-395, 2-((1-(1-(1-(6-((6-acetyl-8-cyclopentyl-5-methyl-7-oxo-7,8-dihydropyrido[2,3-d]pyrimidin-2-yl)amino)pyridin-3-yl)piperidin-4-yl)pyrrolidine-3-carbonyl)pyrrolidin-3-yl)amino)-N-(6-(dimethylamino)pyridazin-3-yl)-6-(isopropylamino)nicotinamide] | > 100 nM
4 | CC(=O)c1c(C)c2cnc(Nc3ccc(N4CCC(N5CCC(C(=O)N6CCC(Nc7nc(NC(C)C)ccc7C(=O)Nc7ccc(N(C)C)nn7)CC6)C5)CC4)cn3)nc2n(C2CCCC2)c1=O (centres unmarked) [CPD-396, 2-((1-(1-(1-(6-((6-acetyl-8-cyclopentyl-5-methyl-7-oxo-7,8-dihydropyrido[2,3-d]pyrimidin-2-yl)amino)pyridin-3-yl)piperidin-4-yl)pyrrolidine-3-carbonyl)piperidin-4-yl)amino)-N-(6-(dimethylamino)pyridazin-3-yl)-6-(isopropylamino)nicotinamide] | > 100 nM
5 | CC(=O)c1c(C)c2cnc(Nc3ccc(N4CCC(N5CCC(C(=O)NC6CC7(C6)CC(Nc6nc(NC(C)C)ccc6C(=O)Nc6ccc(N(C)C)nn6)C7)C5)CC4)cn3)nc2n(C2CCCC2)c1=O (centres unmarked) [CPD-397, 2-((6-(1-(1-(6-((6-acetyl-8-cyclopentyl-5-methyl-7-oxo-7,8-dihydropyrido[2,3-d]pyrimidin-2-yl)amino)pyridin-3-yl)piperidin-4-yl)pyrrolidine-3-carboxamido)spiro[3.3]heptan-2-yl)amino)-N-(6-(dimethylamino)pyridazin-3-yl)-6-(isopropylamino)nicotinamide] | < 50 nM
6 | CC(=O)c1c(C)c2cnc(Nc3ccc(N4CCC(N5CCC(C(=O)N6CC7(CC(Nc8nc(NC(C)C)ccc8C(=O)Nc8ccc(N(C)C)nn8)C7)C6)C5)CC4)cn3)nc2n(C2CCCC2)c1=O (centres unmarked) [CPD-398, 2-((2-(1-(1-(6-((6-acetyl-8-cyclopentyl-5-methyl-7-oxo-7,8-dihydropyrido[2,3-d]pyrimidin-2-yl)amino)pyridin-3-yl)piperidin-4-yl)pyrrolidine-3-carbonyl)-2-azaspiro[3.3]heptan-6-yl)amino)-N-(6-(dimethylamino)pyridazin-3-yl)-6-(isopropylamino)nicotinamide] | 50 to 100 nM
7 | CC(=O)c1c(C)c2cnc(Nc3ccc(N4CCN(C5CCN(C(=O)C6CC7(CC(Nc8nc(NC(C)C)ccc8C(=O)Nc8ccc(N(C)C)nn8)C7)C6)C5)CC4)cn3)nc2n(C2CCCC2)c1=O (centres unmarked) [CPD-400, 2-((6-(3-(4-(6-((6-acetyl-8-cyclopentyl-5-methyl-7-oxo-7,8-dihydropyrido[2,3-d]pyrimidin-2-yl)amino)pyridin-3-yl)piperazin-1-yl)pyrrolidine-1-carbonyl)spiro[3.3]heptan-2-yl)amino)-N-(6-(dimethylamino)pyridazin-3-yl)-6-(isopropylamino)nicotinamide] | 50 to 100 nM
8 | CC(=O)c1c(C)c2cnc(Nc3ccc(N4CCN(C5CN(C(=O)C6CC7(CC(Nc8nc(NC(C)C)ccc8C(=O)Nc8ccc(N(C)C)nn8)C7)C6)C5)CC4)cn3)nc2n(C2CCCC2)c1=O (centres unmarked) [CPD-401, 2-((6-(3-(4-(6-((6-acetyl-8-cyclopentyl-5-methyl-7-oxo-7,8-dihydropyrido[2,3-d]pyrimidin-2-yl)amino)pyridin-3-yl)piperazin-1-yl)azetidine-1-carbonyl)spiro[3.3]heptan-2-yl)amino)-N-(6-(dimethylamino)pyridazin-3-yl)-6-(isopropylamino)nicotinamide] | > 100 nM
9 | CC(=O)c1c(C)c2cnc(Nc3ccc(N4CCN(C5CCN(C(=O)[C@H]6CC[C@@H](Nc7nc(NC(C)C)ccc7C(=O)Nc7ccc(N(C)C)nn7)C6)C5)CC4)cn3)nc2n(C2CCCC2)c1=O (stereo partly drawn) [CPD-403, 2-(((1R,3S)-3-(3-(4-(6-((6-acetyl-8-cyclopentyl-5-methyl-7-oxo-7,8-dihydropyrido[2,3-d]pyrimidin-2-yl)amino)pyridin-3-yl)piperazin-1-yl)pyrrolidine-1-carbonyl)cyclopentyl)amino)-N-(6-(dimethylamino)pyridazin-3-yl)-6-(isopropylamino)nicotinamide] | 50 to 100 nM
10 | CC(=O)c1c(C)c2cnc(N(C)c3ccc(N4CCN(CCC(=O)N5CC6(CC(Nc7nc(NC(C)C)ccc7C(=O)Nc7cc(C)n(C)n7)C6)C5)CC4)cn3)nc2n(C2CCCC2)c1=O [CPD-404, 2-((2-(3-(4-(6-((6-acetyl-8-cyclopentyl-5-methyl-7-oxo-7,8-dihydropyrido[2,3-d]pyrimidin-2-yl)(methyl)amino)pyridin-3-yl)piperazin-1-yl)propanoyl)-2-azaspiro[3.3]heptan-6-yl)amino)-N-(1,5-dimethyl-1H-pyrazol-3-yl)-6-(isopropylamino)nicotinamide] | > 100 nM
11 | [2H]C([2H])([2H])Nc1ccc(C(=O)Nc2cn(C)c(C3CC3)n2)c(NC2CC3(CC(NC(=O)C(C)N4CCN(c5ccc(Nc6ncc7c(C)c(C(C)=O)c(=O)n(C8CCCC8)c7n6)nc5)CC4)C3)C2)n1 (centres unmarked) [CPD-405, 2-((6-(2-(4-(6-((6-acetyl-8-cyclopentyl-5-methyl-7-oxo-7,8-dihydropyrido[2,3-d]pyrimidin-2-yl)amino)pyridin-3-yl)piperazin-1-yl)propanamido)spiro[3.3]heptan-2-yl)amino)-N-(2-cyclopropyl-1-methyl-1H-imidazol-4-yl)-6-((methyl-d3)amino)nicotinamide] | > 100 nM
12 | CC(=O)c1c(C)c2cnc(Nc3ccc(N4CCN(C(C)C(=O)NC5CC6(C5)CC(Nc5nc(NC(C)C)ccc5C(=O)Nc5ccc(N(C)C)nn5)C6)CC4)cn3)nc2n(C2CCCC2)c1=O (centres unmarked) [CPD-406, 2-((6-(2-(4-(6-((6-acetyl-8-cyclopentyl-5-methyl-7-oxo-7,8-dihydropyrido[2,3-d]pyrimidin-2-yl)amino)pyridin-3-yl)piperazin-1-yl)propanamido)spiro[3.3]heptan-2-yl)amino)-N-(6-(dimethylamino)pyridazin-3-yl)-6-(isopropylamino)nicotinamide] | < 50 nM
13 | CC(=O)c1c(C)c2cnc(Nc3ccc(N4CCC5(CC4)CC5C(=O)N4CCC(Nc5nc(NC(C)C)ccc5C(=O)Nc5cc(C)n(C)n5)CC4)cn3)nc2n(C2CCCC2)c1=O (centres unmarked) [CPD-408, 2-((1-(6-(6-((6-acetyl-8-cyclopentyl-5-methyl-7-oxo-7,8-dihydropyrido[2,3-d]pyrimidin-2-yl)amino)pyridin-3-yl)-6-azaspiro[2.5]octane-1-carbonyl)piperidin-4-yl)amino)-N-(1,5-dimethyl-1H-pyrazol-3-yl)-6-(isopropylamino)nicotinamide] | < 50 nM
14 | CC(=O)c1c(C)c2cnc(Nc3ccc(N4CCC5(CC4)CC5C(=O)N4CCC(Nc5nc(NC(C)C)ccc5C(=O)Nc5cn(C)c(C6CC6)n5)CC4)cn3)nc2n(C2CCCC2)c1=O (centres unmarked) [CPD-409, 2-((1-(6-(6-((6-acetyl-8-cyclopentyl-5-methyl-7-oxo-7,8-dihydropyrido[2,3-d]pyrimidin-2-yl)amino)pyridin-3-yl)-6-azaspiro[2.5]octane-1-carbonyl)piperidin-4-yl)amino)-N-(2-cyclopropyl-1-menthyl-1H-imidazol-4-yl)-6-(isopropylamino)nicotinamide] | < 50 nM
15 | CC(=O)c1c(C)c2cnc(Nc3ccc(N4CCN(CC(=O)NC(C)(C)C5CC(Nc6nc(NC(C)C)ccc6C(=O)Nc6cc(C)on6)C5)CC4)cn3)nc2n(C2CCCC2)c1=O (centres unmarked) [CPD-410, 2-((3-(2-(2-(4-(6-((6-acetyl-8-cyclopentyl-5-methyl-7-oxo-7,8-dihydropyrido[2,3-d]pyrimidin-2-yl)amino)pyridin-3-yl)piperazin-1-yl)acetamido)propan-2-yl)cyclobutyl)amino)-6-(isopropylamino)-N-(5-methylisoxazol-3-yl)nicotinamide] | > 100 nM
16 | CC(=O)c1c(C)c2cnc(Nc3ccc(N4CCC5(CC4)CC5C(=O)N4CC5(CC(Nc6nc(NC(C)C)ccc6C(=O)Nc6cn(C)c(C7CC7)n6)C5)C4)cn3)nc2n(C2CCCC2)c1=O (centres unmarked) [CPD-412, 2-((2-(6-(6-((6-acetyl-8-cyclopentyl-5-methyl-7-oxo-7,8-dihydropyrido[2,3-d]pyrimidin-2-yl)amino)pyridin-3-yl)-6-azaspiro[2.5]octane-1-carbonyl)-2-azaspiro[3.3]heptan-6-yl)amino)-N-(2-cyclopropyl-1-methyl-1H-imidazol-4-yl)-6-(isopropylamino)nicotinamide] | > 100 nM
17 | CC(=O)c1c(C)c2cnc(Nc3ccc(N4CCC5(CC4)CC5C(=O)NC4CC(Nc5nc(NC(C)C)ccc5C(=O)Nc5ccc(N(C)C)nn5)C4)cn3)nc2n(C2CCCC2)c1=O (centres unmarked) [CPD-413, 6-(6-((6-acetyl-8-cyclopentyl-5-methyl-7-oxo-7,8-dihydropyrido[2,3-d]pyrimidin-2-yl)amino)pyridin-3-yl)-N-(3-((3-((6-(dimethylamino)pyridazin-3-yl)carbamoyl)-6-(isopropylamino)pyridin-2-yl)amino)cyclobutyl)-6-azaspiro[2.5]octane-1-carboxamide] | > 100 nM
